Data set [1] concerns patients having diffuse cerebral calcifications. In words: Clinical response to treatment of patients with cerebral calcifications and cerebral folate deficiency (global disability score, subjective evaluations, neurological examination, serial videos). The data set is classed as in vivo, humans. Also on record: key to Global score after treatment: 1: Autonomous for all activities of daily living; 2: can walk at least 100 meters alone, needs help for few activities of daily living; 3: can walk unaided about 10 meters, needs help for many activities of daily living; 4: can not walk alone, needs aid for most activities of daily living. To be noted: for Global score after treatment: global score before treatment 3. From the text: Three patients having diffuse cerebral calcifications involving the basal ganglia, cerebellar dentate nuclei, white matter and in one patient the occipital cortex (Table 3) were studied. These neuroradiological findings were indistinguishable from Fahr's Syndrome (IBGC MIM # 114100, # 213600). […] Autonomous for all activities of daily living • 2: can walk at least 100 meters alone, needs help for few activities of daily living • 3: can walk unaided about 10 meters, needs help for many activities of daily living • 4: can not walk alone, needs aid for most activities of daily living. The clinical response to treatment was judged based on the patient's, patient's family, nurses and neurologist subjective evaluations, neurological examination and serial videos. A global disability score was designed to evaluate clinical severity and evolution (see table 3 legend). Table 4: Effect of treatments

For data set [2] the following is noted: quoted from WO 2006/119589; cited from earlier work.
The conditions of data set [3]: quoted from WO 2006/119589; cited from earlier work. The source holds these as a separate data set.

In the case of `CN1c2c(nc(N)[nH]c2=O)NCC1CNc1ccc(C(=O)NC(CCC(=O)O)C(=O)O)cc1` (stereo not shown) [MTHF, 5-methyltetrahydrofolate], the “Global score after treatment” value in data set [1] (patient #1, MTHF 2 mg/kg/d, treatment duration 2 years ½) amounted to 2; in data set [1] (patient #2, MTHF 2 mg/kg/d, treatment duration 14 months) it was 3; in data set [1] (patient #3, MTHF 1.5 mg/kg/d, treatment duration 1 year), 2. Moreover, in data set [2], the toxicity studies result is reported as “no adverse effects”. Also, the bio-availability entry in data set [3] is recorded as “high bio-availability”.
For the compound `Nc1nc2c(c(=O)[nH]1)N(C=O)C(CNc1ccc(C(=O)N[C@@H](CCC(=O)O)C(=O)O)cc1)CN2` (stereo partly shown) [Calcium folinate, 5-formyltetrahydrofolic acid], the “other treatments leading to less or only transient improvement” value is given as “Calcium folinate led to marked initial impro-vement that waned after 6 months. IVIg (0.4gr/kgX5d every 6weeks) led to improvement of walking during 4 months” in data set [1] (patient #1, IVIg 0.4gr/kgX5d every 6weeks) and “Calcium folinate 75 mg/d: same effect than MTHF” in data set [1] (patient #3, Calcium folinate 75 mg/d).

The values above are taken from patent EP2253266A1, “Method for treating patients with cerebral calcifications” (Assistance Publique - Hôpitaux de Paris, priority 2009, dated 2010).
